The values below come from ChEMBL document CHEMBL3217635, “Pharmacological properties of indolone-N-oxides controlled by a bioreductive transformation in red blood cells?” (Medchemcomm, 2011).

A short description of series [1]: Metabolic stability in human RBC assessed as retention time at 7.8 mg/ml by LC-MS analysis. In kind it is ADME, cell-based. Conditions: erythrocyte; call rule not given here.
Series [2] is described as follows: Metabolic stability in human RBC assessed as retention time of corresponding dihydroanalogue at 7.8 mg/ml by LC-MS analysis. In kind it is ADME, cell-based. As to conditions: erythrocyte.
Series [3] relates to Plasmodium falciparum. The experiment in a line: Antiplasmodial activity against Plasmodium falciparum FcB1. The class given is functional, organism-based.
A short description of series [4]: Cytotoxicity against human MCF7 cells. In kind it is cell-based.
Series [5] in a line: Selectivity index, ratio of CC50 for human MCF7 cells to IC50 for Plasmodium falciparum FcB1. The class given is functional.
Series [6] in a line: Half life in CD-1 mouse liver microsomes by LC-FL analysis. In kind it is ADME.
A short description of series [7]: Half life in mouse liver microsomes. In kind it is ADME.
Series [8] is described as follows: Drug metabolism in CD-1 mouse liver microsomes assessed as 1-HH metabolite formation after 10 mins by LC-FL analysis. In kind it is ADME.
The nature of series [9]: Cellular uptake in human RBC assessed as intracellular level at 1 mg/ml measured immediately. In kind it is ADME, cell-based. Conditions: erythrocyte.
Series [10] in a line: Drug metabolism in human RBC assessed as 1-HH formation at 5 mM at 4 degC after 6 hrs by HPLC-FL analysis. In kind it is ADME, cell-based. As to conditions: erythrocyte, 5000 µM.
Series [11] can be described thus: Metabolic stability in human RBC assessed as increase in extracellular dihydroanalogue metabolite level at 1 mg/ml. The class given is ADME, cell-based. Conditions: erythrocyte, TDE = time-dependent effect.
Series [12] in a line: Drug metabolism in human RBC assessed as 1-HH formation at 5 mM at 37 degC after 6 hrs by HPLC-FL analysis. As to conditions: erythrocyte, 5000 µM. In kind it is ADME, cell-based.
Series [13] in a line: Drug metabolism in human heat-denaturated RBC. The class given is ADME, cell-based. As to conditions: erythrocyte.
A short description of series [14]: Drug metabolism in human NEM-treated RBC assessed as 1-HH formation after 4 hrs by HPLC-FL analysis. In kind it is ADME, cell-based. As to conditions: erythrocyte.
Series [15] can be described thus: Drug metabolism in CDNB-treated human RBC assessed as 1-HH formation after 4 hrs by HPLC-FL analysis. The class given is ADME, cell-based. As to conditions: erythrocyte.
A short description of series [16]: Drug metabolism in human RBC assessed as 1-HH formation after 4 hrs by HPLC-FL analysis. In kind it is ADME, cell-based. Conditions: erythrocyte.
A short description of series [17]: Drug metabolism in human RBC infected with late stage Plasmodium falciparum assessed as 1-HH formation after 3 hrs. Conditions: erythrocyte. In kind it is ADME, cell-based.
The nature of series [18]: Drug metabolism in healthy human RBC assessed as 1-HH formation after 3 hrs. The class given is ADME, cell-based. As to conditions: erythrocyte.
Series [19] is described as follows: Drug metabolism in human beta-thalassemic RBC assessed as 1-HH formation after 3 hrs. In kind it is ADME, cell-based. As to conditions: erythrocyte.
Series [20] is described as follows: Drug metabolism in human phenylhydrazine-treated RBC assessed as 1-HH formation after 3 hrs. Conditions: erythrocyte. In kind it is ADME, cell-based.
Series [21] is described as follows: Drug metabolism assessed as 1-HH metabolite formation in presence of haemoglobin. In kind it is physicochemical.
A short description of series [22]: Drug metabolism assessed as 1-HH metabolite formation in presence of human haemoglobin. In kind it is ADME.
Series [23] in a line: Drug metabolism assessed as 1-HH metabolite formation in presence of haemin. In kind it is physicochemical.
Series [24] is described as follows: Drug metabolism assessed as 1-HH metabolite formation in presence of haematin. The class given is physicochemical.
Series [25] can be described thus: Drug metabolism assessed as 1-HH metabolite formation in presence of ferrous ion. The class given is physicochemical.
Series [26] is described as follows: Drug metabolism in cytoplasm of human RBC assessed as 1-HH metabolite formation after 3 hrs. In kind it is ADME. Conditions: erythrocytes.
Series [27] in a line: Drug metabolism assessed as 1-HH metabolite formation after 3 hrs in presence of human haemoglobin. The class given is physicochemical.
The nature of series [28]: Drug metabolism assessed as 1-HH metabolite formation after 3 hrs in presence of ghost fraction. The class given is physicochemical.

Consider `COc1ccc2cc(C3=[N+]([O-])c4ccccc4C3=O)ccc2c1`, for which the Retention_time in series [1] amounted to 17.4 min; in series [2] it was 9.9 min.

`O=C1c2cc3c(cc2NC1(O)c1ccc(Cl)cc1)OCO3` (stereo not drawn) had a half-inhibitory concentration (IC50) in series [3] of 1.03 µM. Moreover, the midpoint of cytotoxicity in series [4], the CC50, lay at 68 µM. Besides, in [5], the “Ratio CC50/IC50” value turned out to be 66. Further, in series [6], the half-life amounted to 10 min.

For the compound `COc1ccc2c(c1)C(=O)C(c1ccc(Oc3ccccc3)cc1)=[N+]2[O-]`, the Retention_time in [1] was determined as 23.5 min; in [2] it was 11.3 min.

`O=C1C(c2ccc(Cl)c(Cl)c2)=[N+]([O-])c2ccccc21`: the Retention_time was found to be 20.9 min in series [1] and 11.2 min in series [2].

As for `COc1ccc2c(c1)C(=O)C(c1ccc(N(C)C)cc1)=[N+]2[O-]`, the Retention_time was determined as 14 min in series [1] and 8.2 min in [2]. This compound had an IC50 in series [3] of 0.003 µM. The compound also yielded a half-life in series [7] of 6 min.

Consider `COc1ccc2c(c1)C(=O)C(c1ccc(Cl)c(C)c1)=[N+]2[O-]`, for which the values for the Retention_time in series [1] and in series [2] were 22.6 min and 10.4 min, respectively.

For `O=C1C(c2ccc(Cl)cc2)=[N+]([O-])c2cc3c(cc21)OCO3`, the results for the Retention_time in [1] and in series [2] were 18.2 min and 9.6 min, respectively. The Stability result in series [8], in [13], in series [21], in [22], in series [23] and in [24] was “Stable” each time. The Stability result in series [25], in series [27] and in [28] was “Stable” each time. Also, the Drug uptake result in [9] was “Active”. For the same compound, the Drug metabolism entry is listed as “Active” in series [10]; “tde” in [11]; “Active” in series [12]; “Not Active” in [14]; “Not Active” in [15]; “Active” in series [16]. For the same compound, the Drug metabolism result in [17], in [18], in series [19], in series [20] and in series [26] was “Active” throughout. Moreover, it took 23 µM to reach half-maximal cytotoxicity in series [4] (CC50). In [5], the “Ratio CC50/IC50” value stood at 264. This compound gave a half-life in series [6] of less than 1 min.

`CCN(CC)CCCC(C)Nc1ccnc2cc(Cl)ccc12` (stereo not drawn) [CHLOROQUINE] yielded a CC50 in [4] of 19 µM.
